Results taken from patent publication US10131691B2, “Compositions and methods for specific regulation of pyruvate dehydrogenase kinase” (THE BOARD OF TRUSTEES OF THE LELAND STANFORD JUNIOR …, priority 2011, dated 2018).
No end group written: not given here.

Tests used:
[1] = system: fibroblasts derived from δPKC knock-out mice; experiment: MARCKS phosphorylation in fibroblasts from δPKC knock-out mice; format: cell-based, mouse; settings: fibroblasts lacking δPKC
Description: Fibroblasts were isolated from wild-type or δPKC knockout mice (provided by Dr. Robert Messing, Gallo Center, UCSF) as previously described (Disatnik et al., 2004, J. Cell Sci., 117:4469-4479) and maintained in 20% fetal bovine serum.
Phosphorylation of myristoylated alanine-rich C kinase substrate (MARCKS), a ubiquitous PKC substrate, was monitored by Western blot of total cell lysates, using anti-phosphorylated MARCKS (Cell Signaling, Danvers, Mass.). Anti-MARCKS and anti-δPKC antibodies were obtained from Santa Cruz Biotechnology (Santa Cruz Biotechnology, CA, USA).
The ΨPDK sequence is found both in PDK and in the PDK-cognate protein, δPKC. It was therefore predicted that ΨPDK mimics inhibitory intra-molecular interaction, and, similar to ΨδRACK, ΨPDK should compete with the inhibitory interaction of PDK and δPKC, and increase δPKC-mediated functions (FIG. 1A). Phosphorylation of myristoylated alanine-rich C-kinase substrate (MARCKS) was used as a marker of PKC activity (Disatnik et al., 2004, J. Cell. Sci., 117:4469-4479). […] To determine the selectivity of the peptides for δPKC, fibroblasts derived from δPKC knock-out mice were also used.

[2] = target: T1, δPKC phosphorylation of PDK (Homo sapiens, UniProt Q05655); experiment: In vitro kinase assay: δPKC phosphorylation of PDK2; format: biochemical; settings: recombinant δPKC and PDK2
T1 construct: purchased Invitrogen (δPKC); Abnova (PDK2)
T1 sequence (Q05655 whole entry): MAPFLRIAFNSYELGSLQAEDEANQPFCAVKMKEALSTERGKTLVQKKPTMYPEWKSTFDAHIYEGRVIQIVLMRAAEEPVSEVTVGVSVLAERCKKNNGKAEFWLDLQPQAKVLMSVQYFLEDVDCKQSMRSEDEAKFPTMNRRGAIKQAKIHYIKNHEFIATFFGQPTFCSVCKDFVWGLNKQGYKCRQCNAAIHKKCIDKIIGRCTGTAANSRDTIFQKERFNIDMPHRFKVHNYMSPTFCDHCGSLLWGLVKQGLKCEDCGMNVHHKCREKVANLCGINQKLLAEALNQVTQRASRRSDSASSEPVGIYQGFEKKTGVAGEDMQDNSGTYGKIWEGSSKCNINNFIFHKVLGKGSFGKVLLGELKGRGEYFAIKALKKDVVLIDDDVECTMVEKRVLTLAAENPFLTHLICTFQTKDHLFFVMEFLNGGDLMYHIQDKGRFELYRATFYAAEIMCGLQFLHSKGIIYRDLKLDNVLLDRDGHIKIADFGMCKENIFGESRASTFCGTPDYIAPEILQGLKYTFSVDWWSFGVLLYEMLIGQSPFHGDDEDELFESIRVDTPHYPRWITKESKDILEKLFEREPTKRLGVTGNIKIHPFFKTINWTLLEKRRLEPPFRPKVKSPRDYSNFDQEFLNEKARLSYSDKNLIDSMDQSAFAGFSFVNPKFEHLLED
Procedure: In vitro phosphorylation assay. To determine the level of PDK and Drp1 phosphorylation in presence of ΨPDK, δPKC recombinant protein (Invitrogen, Calif., USA; 200 ng) was incubated with or without peptides for 10 min, then 100 ng recombinant PDK2 (Abnova, Taiwan) or Drp1 (Abnova, Taiwan) were added for 20 min at 37° C. in 40 μl of kinase buffer (20 mM Tris-HCl, 20 mM MgCl2, 1 μM DTT, 25 μM ATP, 1 mM CaCl2) containing 5 μCi [γ^32P] ATP (4500 Ci/mmol, ICN) in the presence of the low amount of PKC activators, phosphatidylserine (PS, 1.25 μg) and 1,2 dioleoyl sn-glycerol (DG, 0.04 μg). The kinase assay was terminated by adding loading Laemmli buffer containing 5% SDS and the samples were loaded on a 10% PAGE-SDS polyacrylamide gel, and the levels of phosphorylated PDK2 protein were determined by exposing the nitrocellulose to autoradiography. The nitrocellulose was also reprobed using respective antibodies for loading controls.
Since ΨPDK is derived from a PDK-like sequence in δPKC (FIG. 1B), it was reasoned that this peptide should act as a competitive inhibitor, selective for δPKC phosphorylation of PDK. To test this hypothesis directly, an in vitro kinase assay in which the ability of δPKC to phosphorylate PDK is determined was used.

[3] = target: βIPKC (Homo sapiens, UniProt P05771); experiment: Proteinase K sensitivity of βIPKC; format: binding
βIPKC, sequence (P05771 whole entry): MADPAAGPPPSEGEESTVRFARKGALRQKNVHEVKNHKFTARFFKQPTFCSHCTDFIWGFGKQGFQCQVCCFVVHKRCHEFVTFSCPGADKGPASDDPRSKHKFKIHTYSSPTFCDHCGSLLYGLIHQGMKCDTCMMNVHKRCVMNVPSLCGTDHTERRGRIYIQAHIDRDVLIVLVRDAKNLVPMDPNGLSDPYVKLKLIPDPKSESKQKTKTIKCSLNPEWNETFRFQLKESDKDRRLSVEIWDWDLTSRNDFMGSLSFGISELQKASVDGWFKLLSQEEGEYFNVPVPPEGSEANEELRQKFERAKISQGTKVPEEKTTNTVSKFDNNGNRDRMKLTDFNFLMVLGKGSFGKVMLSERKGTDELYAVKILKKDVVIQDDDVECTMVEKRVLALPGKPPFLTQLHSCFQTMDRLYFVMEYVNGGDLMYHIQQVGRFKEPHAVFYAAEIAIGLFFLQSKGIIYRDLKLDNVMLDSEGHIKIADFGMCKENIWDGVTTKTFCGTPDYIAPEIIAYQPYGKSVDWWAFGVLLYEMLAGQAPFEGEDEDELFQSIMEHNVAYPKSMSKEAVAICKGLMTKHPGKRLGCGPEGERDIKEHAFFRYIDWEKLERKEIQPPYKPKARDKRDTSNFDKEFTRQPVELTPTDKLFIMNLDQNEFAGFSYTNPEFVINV

[4] = system: MARCKS; experiment: MARCKS phosphorylation in hearts subjected to I/R; set-up: species or system rat; settings: vs control peptide
Procedure: An ex vivo model of acute ischemic heart damage was used, which involves a 30 min equilibration period, followed by 30 min of global ischemia, which in turn is followed by 60 min of reperfusion. The hearts were perfused with 1 μM TAT or TAT-conjugated peptide. Normoxic control hearts were subjected to 90 min perfusion in the absence of ischemia. Coronary effluent was collected to determine creatine phosphokinase (CPK) release during the first 30 min of the reperfusion period. At the end of the reperfusion period, hearts were sliced into 1-mm-thick transverse sections and incubated in triphenyltetrazolium chloride solution (TTC, 1% in phosphate buffer, pH 7.4) at 37° C. for 15 min. Infarct size was expressed as a percentage of the risk zone (equivalent to total LV muscle mass) (methods described in Brandman et al., 2007, J. Biol. Chem., 282:4113-4123; Inagaki et al., 2003, Circulation, 108:869-875).

ALSTER (not fully specified (C-terminus); also: TAT47-57 conjugated via disulfide) [ΨPDK, for cells and hearts conjugated to TAT47-57 via disulfide bond]
MARCKS phosphorylation [1]: did not affect MARCKS phosphorylation
inhibition of δPKC phosphorylation of PDK [2]: ~30%
sensitivity of βIPKC to proteolysis by PK [3]: unaffected
I/R-induced MARCKS phosphorylation [4]: an increase in I/R-induced MARCKS phosphorylation
